# Measured values reported in patent US9884043B2, “RORgammaT inhibitors” (Merck Sharp & Dohme Corp., priority 2011, dated 2018).
# Target: T1, HIS-tagged RORγ-LBD (Homo sapiens, UniProt P51449)
# T1 construct: HIS-tagged RORγ-LBD was recombinantly expressed in SF9 cells using a baculovirus expression system; made in house; host or cells: SF9 cells, baculovirus; crude lysate used
# T1 sequence (P51449 269-508 limits assumed): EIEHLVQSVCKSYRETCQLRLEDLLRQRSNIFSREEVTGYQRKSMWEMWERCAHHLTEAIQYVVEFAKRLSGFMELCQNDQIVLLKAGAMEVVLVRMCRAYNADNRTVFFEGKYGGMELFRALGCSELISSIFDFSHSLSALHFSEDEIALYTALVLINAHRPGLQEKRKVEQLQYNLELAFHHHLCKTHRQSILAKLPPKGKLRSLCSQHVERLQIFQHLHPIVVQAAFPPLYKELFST
# Test: TR-FRET assay (Protocol B), RORγ-LBD lysate / biotinylated SRC1-2 LXXLL peptide
# Assay type: biochemical
# Conditions: unpurified RORγ-LBD lysate ~10 nM, SRC1-2 peptide 450 nM
# Description: Activation of RORgammaT activity can be measured using e.g. biochemical TR-FRET assay. In such an assay, interaction of cofactor-derived peptides with human RORgammaT-Ligand Binding Domain (LBD) can be measured.
# To identify novel antagonists of RORgammaT, an assay was developed which employs the interaction of RORgammaT with its co-activator peptide SRC1_2. […] The assay was run following three slightly different protocols, i.e. Protocol A, Protocol B, and Protocol C, which are described below.
# TR-Fret Assay (Protocol B)
# HIS-tagged RORγ-LBD was recombinantly expressed in SF9 cells using a baculovirus expression system. The protein was not purified. Cells were lysed and the lysate was used as a source for RORγ-LBD for the assay. A 1:80 dilution of RORγ-LBD lysate in assay buffer (25 mM HEPES pH 7.0, 100 mM NaCl, 0.01% Tween, 0.1% BSA) was prepared and 5 μL was added to each well (RORγ-LBD final concentration ˜10 nM). Control wells received lysate from SF9 cells not expressing RORγ-LBD.
# Compounds to be tested were diluted to 100× final test concentration in DMSO and further diluted to 4× final test concentration using assay buffer to provide the test compound mixture. An aliquot (5 μL) of the test compound mixture was added to each well.
row,SMILES,IC50 [nM]
1,"CN(CCO)C(=O)c1ccc2c(-c3ccc(C(=O)O)cc3)nn(C(=O)c3c(Cl)cccc3C(F)(F)F)c2c1 [Example 25Q, 4-(1-(2-chloro-6-(trifluoromethyl)benzoyl)-6-((2-hydroxyethyl) (methyl)carbamoyl)-1H-indazol-3-yl)benzoic acid]",< 50
2,"O=C(O)c1cc(F)c(-c2nn(C(=O)c3c(Cl)cccc3C(F)(F)F)c3cccc(F)c23)cc1F [Example 24W, 4-(1-(2-chloro-6-(trifluoromethyl)-benzoyl)-4-fluoro-1H-indazol-3-yl)-2,5-difluorobenzoic acid]",< 50
3,"O=C(O)Cc1ccc(-c2nn(C(=O)c3c(Cl)cccc3C(F)(F)F)c3cccc(F)c23)cc1 [Example 24G, 2-(4-(1-(2-chloro-6-(trifluoromethyl)-benzoyl)-4-fluoro-1H-indazol-3-yl)phenyl)acetic acid]",500 to 10000
4,"O=C(O)c1ccc(-c2nn(C(=O)c3c(Cl)cccc3C(F)(F)F)c3cccc(F)c23)c(F)c1F [Example 24V, 4-(1-(2-chloro-6-(trifluoromethyl)-benzoyl)-4-fluoro-1H-indazol-3-yl)-2,3-difluorobenzoic acid]",< 50
5,"O=C(O)c1ccc(-c2nn(C(=O)c3c(Cl)cccc3C(F)(F)F)c3cc(CO)ccc23)c(F)c1 [Example 24BF, 4-(1-(2-chloro-6-(trifluoromethyl)-benzoyl)-6-(hydroxymethyl)-1H-indazol-3-yl)-3-fluorobenzoic acid]",< 50
6,"O=C(O)c1cc(F)c(-c2nn(C(=O)c3c(Cl)cccc3C(F)(F)F)c3cccnc23)cc1Cl [Example 24AJ, 2-chloro-4-(1-(2-chloro-6-(trifluoromethyl)-benzoyl)-1H-pyrazolo[4,3-b]pyridin-3-yl)-5-fluorobenzoic acid]",50 to 500
7,"O=C(O)c1c(O)cc(-c2nn(C(=O)c3c(Cl)cccc3C(F)(F)F)c3cccc(F)c23)cc1F [Example 26D, 4-(1-(2-chloro-6-(trifluoromethyl)benzoyl)-4-fluoro-1H-indazol-3-yl)-2-fluoro-6-hydroxybenzoic acid]",< 50
8,"O=C(O)c1ccc(-c2nn(C(=O)c3c(Cl)cccc3C(F)(F)F)c3cccnc23)cc1O [Example 26H, 4-(1-(2-chloro-6-(trifluoromethyl)benzoyl)-1H-pyrazolo[4,3-b]pyridin-3-yl)-2-hydroxybenzoic acid]",< 50
9,"N#Cc1cc(-c2nn(C(=O)c3c(Cl)cccc3C(F)(F)F)c3cccc(F)c23)ccc1C(=O)O [Example 24U, 4-(1-(2-chloro-6-(trifluoromethyl)-benzoyl)-4-fluoro-1H-indazol-3-yl)-2-cyano benzoic acid]",< 50
10,"CC(C)c1cc(-c2nn(C(=O)c3c(Cl)cccc3C(F)(F)F)c3cccc(F)c23)ccc1C(=O)O [Example 24S, 4-(1-(2-chloro-6-(trifluoromethyl)-benzoyl)-4-fluoro-1H-indazol-3-yl)-2-isopropylbenzoic acid]",500 to 10000
11,"O=C(O)c1ccc(-c2nn(C(=O)c3c(Cl)cccc3C(F)(F)F)c3ccccc23)cc1C(F)F [Example 28, 4-(1-(2-chloro-6-(trifluoromethyl)benzoyl)-1H-indazol-3-yl)-2-(difluoromethyl)benzoic acid]",< 50
12,"Cc1cc(-c2nn(C(=O)c3c(Cl)cccc3C(F)(F)F)c3cccc(F)c23)ccc1C(=O)O [Example 24P, 4-(1-(2-chloro-6-(trifluoromethyl)-benzoyl)-4-fluoro-1H-indazol-3-yl)-2-methylbenzoic acid]",< 50
13,"O=C(O)c1c(F)cc(-c2nn(C(=O)c3c(Cl)cccc3C(F)(F)F)c3cccc(F)c23)cc1F [Example 24R, 4-(1-(2-chloro-6-(trifluoromethyl)-benzoyl)-4-fluoro-1H-indazol-3-yl)-2,6-difluorobenzoic acid]",< 50
14,"O=C(O)c1ccc(-c2nn(C(=O)c3c(Cl)cccc3C(F)(F)F)c3cccnc23)cc1F [Example 24AH, 4-(1-(2-chloro-6-(trifluoromethyl)-benzoyl)-1H-pyrazolo[4,3-b]pyridin-3-yl)-2-fluorobenzoic acid]",< 50
15,"CC(=O)Oc1cc(-c2nn(C(=O)c3c(Cl)cccc3C(F)(F)F)c3cccc(F)c23)ccc1C(=O)O [Example 26B, 2-acetoxy-4-(1-(2-chloro-6-(trifluoromethyl)benzoyl)-4-fluoro-1H-indazol-3-yl)benzoic acid]",< 50
16,"O=C(O)c1ccc(-c2nn(C(=O)c3c(Cl)cccc3C(F)(F)F)c3cc(C(=O)NCCCO)ccc23)c(F)c1 [Example 25M, 4-(1-(2-chloro-6-(trifluoromethyl)benzoyl)-6-(3-hydroxypropyl-carbamoyl)-1H-indazol-3-yl)-3-fluorobenzoic acid]",< 50
17,"COc1cccc(F)c1C(=O)n1nc(-c2ccc(C(=O)O)cc2F)c2ncccc21 [Example 24AN, 3-fluoro-4-(1-(2-fluoro-6-methoxybenzoyl)-1H-pyrazolo[4,3-b]pyridin-3-yl)benzoic acid]",< 50
18,"O=C(O)c1ccc(-c2nn(C(=O)c3c(Cl)cccc3C(F)(F)F)c3cccnc23)c(F)c1 [Example 24C, sodium 4-(1-(2-chloro-6-(trifluoromethyl)benzoyl)-1H-pyrazolo[4,3-b]pyridin-3-yl)-3-fluorobenzoate]",< 50
19,"O=C(O)c1ccc(-c2nn(C(=O)c3c(Cl)cccc3C(F)(F)F)c3cc(C(=O)NCCO)ccc23)c(F)c1 [Example 25H, 4-(1-(2-chloro-6-(trifluoromethyl)benzoyl)-6-(2-hydroxyethyl-carbamoyl)-1H-indazol-3-yl)-3-fluorobenzoic acid]",< 50

# Continued, values first:
row,IC50 [nM],SMILES
1,< 50,"O=C(O)c1ccc(-c2nn(C(=O)c3c(Cl)cccc3C(F)(F)F)c3cccnc23)c(Cl)c1 [Example 24AG, 3-chloro-4-(1-(2-chloro-6-(trifluoromethyl)-benzoyl)-1H-pyrazolo[4,3-b]pyridin-3-yl)benzoic acid]"
2,< 50,"CN(CCO)C(=O)c1ccc2c(-c3ccc(C(=O)O)cc3F)nn(C(=O)c3c(Cl)cccc3C(F)(F)F)c2c1 [Example 25R, 4-(1-(2-chloro-6-(trifluoromethyl)benzoyl)-6-((2-hydroxyethyl) (methyl)carbamoyl)-1H-indazol-3-yl)-3-fluorobenzoic acid]"
3,< 50,"Cc1cc(C(=O)O)c(F)cc1-c1nn(C(=O)c2c(Cl)cccc2C(F)(F)F)c2cccc(F)c12 [Example 24K, 4-(1-(2-chloro-6-(trifluoromethyl)-benzoyl)-4-fluoro-1H-indazol-3-yl)-2-fluoro-5-methylbenzoic acid]"
4,< 50,"NCc1ccc2c(-c3ccc(C(=O)O)cc3)nn(C(=O)c3c(Cl)cccc3C(F)(F)F)c2c1 [Example 27A, 4-(6-(aminomethyl)-1-(2-chloro-6-(trifluoromethyl)benzoyl)-1H-indazol-3-yl)benzoic acid]"
5,50 to 500,"O=C(NCCO)c1ccc2c(-c3ccc(C(=O)O)c(F)c3)nn(C(=O)c3c(Cl)cccc3C(F)(F)F)c2c1 [Example 25G, 4-(1-(2-chloro-6-(trifluoromethyl)benzoyl)-6-(2-hydroxyethyl-carbamoyl)-1H-indazol-3-yl)-2-fluorobenzoic acid]"
6,< 50,"O=C(O)c1ccc(-c2nn(C(=O)c3c(Cl)cccc3C(F)(F)F)c3cc(C(=O)NCCCCO)ccc23)cc1 [Example 25P, 4-(1-(2-chloro-6-(trifluoromethyl)benzoyl)-6-(4-hydroxybutyl-carbamoyl)-1H-indazol-3-yl)benzoic acid]"
7,500 to 10000,"O=C(O)Cc1cccc(-c2nn(C(=O)c3c(Cl)cccc3C(F)(F)F)c3cccc(F)c23)c1 [Example 24F, 2-(3-(1-(2-chloro-6-(trifluoromethyl)-benzoyl)-4-fluoro-1H-indazol-3-yl)phenyl)acetic acid]"
8,< 50,"CC(O)CNC(=O)c1ccc2c(-c3ccc(C(=O)O)cc3)nn(C(=O)c3c(Cl)cccc3C(F)(F)F)c2c1 (stereo not drawn) [Example 25O, 4-(1-(2-chloro-6-(trifluoromethyl)benzoyl)-6-(2-hydroxypropyl-carbamoyl)-1H-indazol-3-yl)benzoic acid]"
9,< 50,"O=C(O)c1ccc(-c2nn(C(=O)c3c(Cl)cccc3C(F)(F)F)c3ccccc23)c(F)c1 [Example 24AR, sodium 4-(1-(2-chloro-6-(trifluoromethyl)-benzoyl)-1H-indazol-3-yl)-3-fluoro benzoate]"
10,< 50,"COc1cccc(F)c1C(=O)n1nc(-c2ccc(C(=O)O)cc2F)c2ccccc21 [Example 24AT, 3-fluoro-4-(1-(2-fluoro-6-methoxybenzoyl)-1H-indazol-3-yl)benzoic acid]"
11,< 50,"COc1cc(-c2nn(C(=O)c3c(Cl)cccc3C(F)(F)F)c3cccc(F)c23)c(F)cc1C(=O)O [Example 24Y, 4-(1-(2-chloro-6-(trifluoromethyl)-benzoyl)-4-fluoro-1H-indazol-3-yl)-5-fluoro-2-methoxybenzoic acid]"
